Melting point data for 65 compounds are collected here from a melting point compilation (Tetko et al.; mined from patent text by program, amines drawn as free bases though some values may be those of a salt).

Molecules are shown by their SMILES.

With `CN(C)c1ccc2cc(-c3ccnc(Cl)c3C#N)ccc2c1`, the melting point (as a rule, the temperature of the solid-liquid transition) was in the range of 198 to 200 °C.
The compound `COc1cc(C(=O)c2cnc3ccccc3c2)ccc1O` had a melting point of 196 to 197 °C.
`CC(C)(C)C1=NCC(O)CN1` (stereo not given) registered a melting point of 210 °C.
The result for `O=C(Nc1ccc(Cl)cc1Cl)c1cc(Cl)c(Cl)[nH]1` reads 262 to 264 °C; that for `CC(=O)Nc1cc(C)c(C)nc1C`, 89 to 92 °C.
In the case of `COc1ccc(OC)c(C#N)c1C#N`, the melting point was 276 to 280 °C.
As for `O=C1N(CCCCN2CCN(C3=NS(=O)(=O)c4ccccc43)CC2)CSC12CCCC2`, the melting point fell in the range of 137 to 140 °C.
In turn, `CC1=NN=C(c2ccc(NC(=O)CN)cc2)c2cc3c(cc2C1)OCO3` gave a melting point of 223 to 225 °C.
The result for `CCCCOCCOc1ccc(-c2ccc3c(c2)C=C(C(=O)Nc2ccc(C(O)c4ccccn4)cc2)CCS3(=O)=O)cc1` (stereo not given) reads 173 to 174 °C; that for `CCCC(c1ccc(C(=O)O)cc1)[Si]1(C)O[Si](C)(C)O[Si](C)(C)O[Si](C)(C)O1` (stereo not given), 72 to 78 °C; that for `CCOC(=O)CCCc1ccc(N[C@@H](CCC(N)=O)C(=O)O)cc1`, 179 to 180 °C.
Regarding `CN(C(=O)CCC#Cc1ccccn1)c1ccccc1`, the melting point was in the range of 68 to 71 °C.
On to `NCC1Cc2cc(F)cc(-c3ccncc3)c2O1` (stereo not given), for which the melting point fell in the range of 170 to 171 °C.
The compound `Brc1cccc2c1Sc1c(Br)cccc1S2` displayed a melting point of 176 to 178 °C.
The result for `CCOC(=Cc1ccc(C(=O)OC)cc1)c1ccc2c(c1)C(C)(C)CCC2(C)C` reads 204 to 206 °C; that for `COC(=O)c1cc(-c2ccc(OCc3cccnc3)cc2O[C@H](CCC(=O)O)c2ccccc2C)n[nH]1`, 155 to 156 °C; that for `Cc1ccc(/C=C/C2=CCN(Cc3nc4ccccc4[nH]3)CC2)o1`, 191 to 193 °C.
The result for `CS(=O)(=O)c1ccc(-c2cnn(Cc3ccccc3)c(=O)c2-c2ccc3c(c2)COC3=O)cc1` reads greater than 250 °C; that for `Cc1c(F)c(Br)cc(Br)c1C(=O)O`, 144 to 146 °C.
Then `O=C1C(Cc2ccc(Br)cc2)=C(C(F)F)C(=O)c2ccccc21`, with 103 to 104 °C; and `Cc1cc(Br)cnc1CCCCNc1ncc(Cc2ccc(Cl)cc2)c(=O)[nH]1`, with 149 to 150 °C.
`COc1ccc(-c2cnc3cc4cnn(C[C@@H](O)CO)c4cc3n2)cc1F`: the melting point fell in the range of 228 to 234 °C.
For `Cc1cc2c(nc1OCCCCN1CCN(c3cccc(Cl)c3Cl)CC1)NC(=O)CC2`, the melting point is 138 to 139 °C.
For the compound `CC(C)n1cccc1C(N)=S`, the melting point lay in the range of 97.5 to 100 °C.
With `COc1ccc(-c2nc(C(F)(F)F)c[nH]2)cc1OC1CCCC1`, the melting point was in the range of 157 to 159 °C.
Then `N#Cc1cc(Cl)ccc1Oc1cc(Br)c(F)cc1O`, with 208 to 210 °C; and `CC(C)(C)C(O)(C=Cc1ccc(Cl)cc1)Cn1cncn1` (stereo not given), with 81 to 83.5 °C.
Turning to `COC(=O)c1ccc2cc(OCC(=O)O)ccc2c1`, the melting point is greater than 285 °C.
`O=C1NCCc2c(CCc3ccccc3)[nH]c3cccc1c23` yielded a melting point of 207 to 208 °C.
As to `CCCCc1nc(Cl)c(Cc2nnn[nH]2)n1Cc1ccc(C(=O)c2ccccc2C(=O)O)cc1`, the melting point fell in the range of 228 to 230 °C.
Then `NC(=O)C(Cl)(Cl)CC1(c2cc(Cl)cc(Cl)c2)CO1` (stereo not given), with 130 to 133 °C; and `CC(C)c1nc2ccccc2c(-c2ccc(F)cc2)c1CO`, with 132 to 134 °C; and `Clc1nc(Cl)nc(-c2cccn2Cc2ccccc2)n1`, with 150 to 151 °C.
In turn, `COC1CC(C(C)CCCC(C)C)C2(C)CCC3C(=C12)CCC1CC(O)CCC13C` (stereo not given) displayed a melting point of 127 to 128 °C.
Then `O=c1[nH]c(=O)n(CCCCl)c2ccccc12`, with 183 to 184 °C.
`Nc1cccc(Oc2ccc3c(c2)OCC(=O)N3)c1` gave a melting point of 209 to 210 °C.
`COc1ccc2ccccc2c1C(Nc1ccccc1C)C(=O)O` (stereo not given) had a melting point of 188 °C.
The result for `CC(C)(C)NCC(O)COc1ccc(-c2nc(C(N)=O)c[nH]2)cc1` (stereo not given) reads 149 to 154 °C.
Regarding `CS(=O)(=O)N(Cc1cccnc1)c1cccc(C(F)(F)F)c1`, the melting point lay in the range of 106 to 110 °C.
`O=C(NCCc1c[nH]c2ccc(C(=O)Nc3ccccc3)cc12)OCc1ccccc1` gave a melting point of 136 to 138 °C.
With `CCCOc1ccc(-c2scc(-c3ccccc3Cl)c2CC(=O)NC(=N)NCCCO)cc1`, the melting point was in the range of 49 to 50 °C.
`COC(=O)CCC(=O)N[C@@H](CO)c1ccccc1` showed a melting point of 59 to 61 °C.
As for `COc1cc(OC)nc(NC(=O)NS(=O)(=O)Oc2ccccc2OCCCl)n1`, the melting point is 132 to 134 °C.
In the case of `CCOP(=O)(Cc1nsc2ccc(-n3c(=O)cc(C(F)(F)F)n(C)c3=O)cc12)OCC`, the melting point lay in the range of 142 to 144 °C.
Consider `CNc1nc2c(N)ncnc2n1C1OC(CO)C(O)C1O` (stereo not given), for which the melting point was greater than 250 °C.
Then `COc1cc(-c2ncnc(Cl)c2Cl)c(F)cc1Cl`, with 116 to 117 °C.
The result for `CCCCCCCCCCCCSc1nnn(C(C(=O)Nc2c(OC)cc(OC)cc2OC)c2ccccc2)n1` (stereo not given) reads 141 to 143 °C; that for `Cc1ncccc1Oc1ccc(NC(=O)Nc2ccc3[nH]c4c(c3c2)CCN(C(=O)OC(C)(C)C)CC4)cn1`, 173 to 175 °C.
The result for `O=C(O)C(CCCN1C(=O)c2ccccc2C1=O)NS(=O)(=O)c1ccc(-c2ccc(Cl)cc2)cc1` (stereo not given) reads 179 to 181 °C; that for `CNC(=S)N1CCC(c2nn(-c3ccc(F)cc3)c3ccccc23)CC1`, 179 to 181 °C.
As to `CCOc1ccc(S(=O)(=O)N2CCNCC2)cc1-c1nc2c(C)cccc2c(=O)[nH]1`, the melting point was 163 to 165 °C.
Then `N#Cc1ccc(C(=O)Nc2ccc(OCCN3CCOCC3)c3ccccc23)cc1`, with 213 to 214 °C; and `CCOC(=O)c1c(S(N)(=O)=O)c2ccccc2n1CC`, with 148 to 149 °C; and `O=[N+]([O-])CC(c1ccc(Cl)cc1)C1CCCCC1O` (racemic), with 82 to 84 °C.
Consider `CCN(Cc1cc(Br)ccc1OCc1ccccc1)c1ccc(C(=O)NCc2cccnc2)cc1`, for which the melting point lay in the range of 119 to 121 °C.
On to `O=C(NCC(C(=O)Nc1n[nH]c(=S)s1)c1ccccc1)OCc1ccccc1` (stereo not given), for which the melting point is 201 to 202 °C.
In turn, `CC1c2ccccc2CCC1CC#N` (stereo not given) returned a melting point of less than 20 °C.
Compound `CC(C)(C)OP(=O)(CO)OC(C)(C)C` yielded a melting point of 100 to 102 °C.
In turn, `N#Cc1ccc(-c2cc(-c3ccc(C#N)cc3Cl)no2)cc1` showed a melting point of 247 to 248 °C.
The compound `COc1cccc(OC)c1Cc1c(Cl)ncnc1Cl` returned a melting point of 152 to 153 °C.
The result for `Nc1n[nH]c2cccc(C(F)(F)F)c12` reads 129 to 130 °C; that for `Cc1cc2c(cc1-c1ccc(C#CC(=O)O)s1)C(C)(C)CCC2(C)C`, 138 to 140 °C.
`CSc1cccc(-c2coc3ccc(-c4nnc(C)o4)cc23)c1`: the melting point fell in the range of 99 to 100 °C.
The result for `CN1C(=O)c2cc(N/C(=C3\C(=O)Nc4ccc([N+](=O)[O-])cc43)c3ccccc3)ccc2C(C)(C)C1=O` reads 169 to 171 °C; that for `CCCc1nn(CC)c2c(=O)[nH]c(-c3cc(S(=O)(=O)Cl)ccc3OCC)nc12`, 170 to 172 °C.
